Laboratory results from patent US20040097543A1, “Use of cyclic 2,4-diphosphoclycerates (cdgp) and/or derivatives thereof in cosmetic and dermatological formulations” (priority 2000, published 2004).

Columns and labels:
Solubility in water = assay type: physicochemical
enzymes = test: Protection against thermally induced denaturation of enzymes; assay type: biochemical; conditions: in comparison with a number of other compatible solutes far and decidedly better
Half-life (hydrolysis) = assay type: physicochemical; conditions: T = 120° C.
LDH = test: Stabilization when freezing protein solutions (LDH); assay type: biochemical
[1] = Stability properties (chemical, physical, pH, light); assay type: physicochemical

O=C(O)[C@H]1COP(=O)(O)OP(=O)(O)O1 [Cyclic diphosphoglycerate, cyclic diphosphoglycerate]
solubility in water (Solubility in water): Excellent
protective effect in respect of the thermally induced denaturation of enzymes (enzymes): excellent
half-life (Half-life (hydrolysis)): 150 h
stabilizing properties when freezing protein solutions (LDH) (LDH): good stabilizing properties
chemical and physical stability [1]: High
